The supplement of paper PMC10307832

Experiments:
Assay in all cases: relative viability (nuclei count vs DMSO), 5 days (fraction); higher = more cells survive
[1] = compound: CCc1cnn2c(NCc3ccc[n+]([O-])c3)cc(N3CCCC[C@H]3CCO)nc12 [Dinaciclib] + Cc1cc(Nc2cc(N3CCN(C)CC3)nc(Sc3ccc(NC(=O)C4CC4)cc3)n2)n[nH]1 [Tozasertib] (partner 0.1 µM)
In short: (§1)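 Lung cancer cell lines, seeded in 1536-well plates, were treated the following day by pin tool with a single drug or with five library-drug doses (not always all listed) in √10 steps on top of a fixed anchor-drug dose. Cells were fixed and nuclei stained in one step after 5 days, and nuclei were counted. Relative viability is the nuclei count for treated wells divided by that for vehicle wells, reported as medians of duplicate plates.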

[2] = compound: CCc1cnn2c(NCc3ccc[n+]([O-])c3)cc(N3CCCC[C@H]3CCO)nc12 [Dinaciclib] + COc1cc2c(Oc3ccc(NC(=O)C4(C(=O)Nc5ccc(F)cc5)CC4)cc3F)ccnc2cc1OCCCN1CCOCC1 [Foretinib] (partner 0.25 µM)
In short: as §1

[3] = compound: CCc1cnn2c(NCc3ccc[n+]([O-])c3)cc(N3CCCC[C@H]3CCO)nc12 [Dinaciclib] + Nc1ncn([C@H]2C[C@H](O)[C@@H](CO)O2)c(=O)n1 [Decitabine] (partner 2 µM)
In short: as §1

[4] = compound: CCc1cnn2c(NCc3ccc[n+]([O-])c3)cc(N3CCCC[C@H]3CCO)nc12 [Dinaciclib] + Cc1nc(Nc2ncc(C(=O)Nc3c(C)cccc3Cl)s2)cc(N2CCN(CCO)CC2)n1 [Dasatinib] (partner 0.075 µM)
In short: as §1

[5] = compound: CCc1cnn2c(NCc3ccc[n+]([O-])c3)cc(N3CCCC[C@H]3CCO)nc12 [Dinaciclib] + CC1(C)CCC(c2ccc(Cl)cc2)=C(CN2CCN(c3ccc(C(=O)NS(=O)(=O)c4ccc(N[C@H](CCN5CCOCC5)CSc5ccccc5)c(S(=O)(=O)C(F)(F)F)c4)cc3)CC2)C1 [Navitoclax] (partner 0.5 µM)
In short: as §1

Row | Cell Line | relative viability ([1]; first compound 0.009487 µM) | relative viability ([1]; first compound 0.03 µM) | relative viability ([1]; first compound 0.09487 µM) | relative viability ([1]; first compound 0.3 µM) | relative viability ([2]; first compound 0.009487 µM) | relative viability ([2]; first compound 0.03 µM) | relative viability ([2]; first compound 0.09487 µM) | relative viability ([2]; first compound 0.3 µM) | relative viability ([3]; first compound 0.009487 µM) | relative viability ([3]; first compound 0.03 µM) | relative viability ([3]; first compound 0.09487 µM) | relative viability ([3]; first compound 0.3 µM) | relative viability ([4]; first compound 0.009487 µM) | relative viability ([4]; first compound 0.03 µM) | relative viability ([4]; first compound 0.09487 µM) | relative viability ([4]; first compound 0.3 µM) | relative viability ([5]; first compound 0.009487 µM) | relative viability ([5]; first compound 0.03 µM) | relative viability ([5]; first compound 0.09487 µM) | relative viability ([5]; first compound 0.3 µM)
1 | HCC-366 | 0.136 | 0.0294 | 0.0259 | 0.0198 | 0.851 | 0.0324 | 0.042 | 0.0348 | 0.237 | 0.133 | 0.0321 | 0.0394 | 0.597 | 0.14 | 0.0199 | 0.033 | 1.01 | 0.11 | 0.0149 | 0.0168
2 | HCC-827 | 0.417 | 0.251 | 0.101 | 0.117 | 1.09 | 0.682 | 0.147 | 0.13 | 0.351 | 0.131 | 0.12 | 0.137 | 0.285 | 0.221 | 0.135 | 0.184 | 1.02 | 0.699 | 0.127 | 0.108
3 | HOP-62 | 0.293 | 0.13 | 0.0833 | 0.075 | 1.11 | 0.376 | 0.0923 | 0.0743 | 0.204 | 0.21 | 0.0932 | 0.0689 | 0.662 | 0.33 | 0.0666 | 0.0723 | 0.967 | 0.126 | 0.0367 | 0.042
4 | IA-LM |  |  |  |  | 1.01 | 0.0352 | 0.0148 | 0.0125 |  |  |  |  |  |  |  |  | 0.695 | 0.0044 | 0.0033 | 0.0072
5 | LC-2-ad | 0.363 | 0.242 | 0.19 | 0.219 | 0.824 | 0.248 | 0.205 | 0.195 | 0.745 | 0.541 | 0.158 | 0.151 | 0.279 | 0.149 | 0.149 | 0.175 | 0.401 | 0.0677 | 0.067 | 0.0747
6 | LCLC-97TM1 | 0.172 | 0.115 | 0.128 | 0.112 | 0.705 | 0.14 | 0.132 | 0.107 | 0.167 | 0.0798 | 0.0518 | 0.0627 | 0.718 | 0.434 | 0.14 | 0.108 | 0.44 | 0.108 | 0.162 | 0.114
7 | LCLC-103H | 0.487 | 0.315 | 0.0924 | 0.0865 | 0.834 | 0.623 | 0.0915 | 0.094 | 0.754 | 0.648 | 0.297 | 0.242 | 0.41 | 0.432 | 0.0877 | 0.0685 |  |  |  | 
8 | LK-2 | 0.2 | 0.154 | 0.151 | 0.168 | 1.13 | 0.267 | 0.164 | 0.142 | 0.27 | 0.119 | 0.0855 | 0.0805 | 0.267 | 0.141 | 0.115 | 0.144 | 0.761 | 0.123 | 0.0967 | 0.102
9 | LOU-NH91 | 0.656 | 0.305 | 0.178 | 0.174 | 0.971 | 0.406 | 0.214 | 0.216 | 0.642 | 0.434 | 0.269 | 0.271 | 0.564 | 0.287 | 0.243 | 0.179 | 0.707 | 0.254 | 0.151 | 0.138
10 | NCI-H358 | 0.103 | 0.0813 | 0.0924 | 0.0857 | 0.493 | 0.0864 | 0.0847 | 0.0882 | 0.157 | 0.0817 | 0.075 | 0.0916 | 0.182 | 0.0918 | 0.0845 | 0.0762 |  |  |  | 
11 | NCI-H522 | 0.488 | 0.418 | 0.372 | 0.278 |  |  |  |  | 0.688 | 0.65 | 0.347 | 0.326 | 0.979 | 0.589 | 0.36 | 0.319 |  |  |  | 
12 | NCI-H650 | 0.493 | 0.183 | 0.154 | 0.153 | 1.02 | 0.182 | 0.165 | 0.142 | 0.308 | 0.204 | 0.118 | 0.124 | 0.36 | 0.169 | 0.154 | 0.164 |  |  |  | 
13 | NCI-H661 | 0.339 | 0.183 | 0.199 | 0.18 | 0.851 | 0.213 | 0.202 | 0.199 | 0.472 | 0.181 | 0.158 | 0.196 | 0.38 | 0.144 | 0.17 | 0.132 |  |  |  | 
14 | NCI-H1563 |  |  |  |  | 1.14 | 0.504 | 0.327 | 0.291 |  |  |  |  | 0.448 | 0.307 | 0.133 | 0.123 |  |  |  | 
15 | NCI-H1703 |  |  |  |  | 0.39 | 0.319 | 0.144 | 0.12 |  |  |  |  |  |  |  |  | 1.19 | 0.117 | 0.0887 | 0.114
16 | NCI-H1792 |  |  |  |  |  |  |  |  | 0.522 | 0.373 | 0.0508 | 0.0591 | 0.823 | 0.631 | 0.439 | 0.183 | 0.678 | 0.174 | 0.0483 | 0.0639
17 | NCI-H2228 | 0.333 | 0.137 | 0.0995 | 0.0912 | 0.87 | 0.36 | 0.104 | 0.11 |  |  |  |  | 0.399 | 0.106 | 0.0787 | 0.0912 | 0.882 | 0.174 | 0.0319 | 0.0438
18 | NCI-H2342 | 0.491 | 0.468 | 0.231 | 0.203 | 0.998 | 0.739 | 0.273 | 0.274 | 0.78 | 0.583 | 0.269 | 0.284 | 0.333 | 0.289 | 0.248 | 0.23 |  |  |  | 
19 | SW 900 | 0.707 | 0.149 | 0.0868 | 0.0829 | 0.874 | 0.462 | 0.0641 | 0.0639 | 0.408 | 0.325 | 0.182 | 0.151 | 0.61 | 0.246 | 0.0591 | 0.0806 |  |  |  | 
